{"source": "patent US20250177351A1", "about": "“ISOINDOLINE COMPOSITIONS AND METHODS FOR TREATING NEURODEGENERATIVE DISEASE” (Cognition Therapeutics, Inc., priority 2022, published 2025)", "key": {"sigma-2 receptor complex": {"molecular_target": "T1, sigma-2 receptor complex (Mus musculus, UniProt Q8VD00)", "T1 construct": "from tissue; host or cells: brain, in vivo (projection from human CSF concentrations; occupancy itself determined in transgenic mouse brain)", "T1 sequence (Q8VD00 1-176)": "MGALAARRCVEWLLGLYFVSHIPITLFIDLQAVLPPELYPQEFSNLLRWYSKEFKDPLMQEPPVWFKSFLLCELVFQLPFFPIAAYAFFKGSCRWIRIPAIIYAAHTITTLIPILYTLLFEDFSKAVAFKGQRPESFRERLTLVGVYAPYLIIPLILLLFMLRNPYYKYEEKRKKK", "test": "Projected receptor occupancy from human CSF concentrations, based on mouse Alzheimer's disease models", "type": "in vivo", "experimental": "Horizontal lines indicate projected receptor occupancy based on concentration and receptor occupancy determined in pre-clinical mouse Alzheimer's disease models.\nAt the 840 mg dose, CSF levels reached those associated with 98% receptor occupancy."}, "[1]": {"test": "Phase 1 MAD study: safety assessments", "type": "in vivo, human", "experimental": "In Part B, healthy young subjects in each cohort received the same dose once daily for 14 days after overnight fasting. Cohort dosing started at 280 mg, followed by 560 mg and 840 mg in subsequent cohorts. In each cohort, eight subjects received drug and two received placebo. A fourth cohort of healthy elderly subjects (≥65 years old) received a 560 mg dose vs. placebo daily for 14 days (seven active, two placebo).\nSubjects were dosed in the morning with 240 mL of water after an 8-hour fast, and remained in a semi-reclined position for 1 hour and fasting for 2 hours post-administration, except for the fed cohort in Part A. Subjects in each MAD cohort were confined to the clinical facility from check-in on Day 0 until the pharmacokinetic sample was collected on Day 16, 48 hours after administration of the last dose on Day 14. Subjects returned to the clinical facility for follow-up visits on Days 24 and 35.\nSafety variables, including incidence of adverse events (AEs), vital signs, clinical laboratory findings, 12-lead electrocardiographs (ECGs), physical examination, and affective and cognitive measures (Part B only), were summarized for all subjects who received study drug."}, "[2]": {"test": "Phase 1 single ascending dose (SAD)/food-effect study: plasma pharmacokinetics", "type": "in vivo, human", "experimental": "A Phase 1, two-part single and multiple ascending dose study was conducted in 7 and 4 cohorts of healthy human subjects respectively. […] In Part B, subjects were administered 280, 560, and 840 mg once daily for 14 days (8:2 A:P per cohort). An elderly cohort, age 65-75, was dosed at 560 mg once daily for 14 days (7:2 A:P). […] Cognitive testing was performed in the healthy elderly cohort at baseline and at Day 14 of treatment.\nPart A was a single ascending dose cohort study in which healthy, young subjects (less than 65 years old) received one dose of study drug in the morning after an overnight fast. Cohort dosing started at 10 mg and increased to 30 mg, 90 mg, 180 mg, 450 mg, and 1120 mg in subsequent cohorts. Six drug-treated and two placebo-treated subjects were randomized in each cohort. A seventh cohort of six subjects each received a single 90 mg dose of drug 30 min. after a meal. Following completion of all safety assessments and blood draws for PK analyses, subjects were discharged on Day 3.\nIn Part A, blood draws for assessment of PK parameters occurred pre-dose and at 15, 30, 45, 60, and 90 minutes post dose as well as at 2, 3, 4, 8, 12, 24, 36, and 48 hours post dose. […] In Part B, blood samples for plasma PK analysis were taken on Day 1 at pre-dose and at 2 hours post-dose, on Day 3 at pre-dose and at 15, 30 and 45 minutes and 1, 2, 3, 4, 8, 12 and 24 hours post-dose, on Days 4, 6, 8 and 10 at pre-dose and at 1.5 hours post-dose and following the final dose on Day 14 at pre-dose and 15, 30 and 45 minutes and 1, 2, 4, 8, 12, 24, 36 and 48 hours post-dose.\nThis was assessed by analysis of variance (ANOVA) of log-transformed Cmax, AUC0-24, AUC0-48, and/or AUC0-inf, using a model with factors for treatment (fed status or age [young vs. elderly] status) and subject within sequence. Treatment mean differences and 90% confidence intervals of the log transformed PK parameters were back-transformed, to present the geometric least squares means ratios and 90% confidence limits."}, "[3]": {"test_system": "DIV21 hippocampal/cortical cultures with Aβ oligomers", "test": "Neurogranin expression study in vitro", "type": "cell-based", "conditions": "Aβ42 oligomers 500 nM, 1 hr, followed by CT1812 4.8 nM, 24 hr", "experimental": "Neurons were fixed in 3.75% formaldehyde and stained with full-length neurogranin (Abcam catalogue #ab23570, used in combination with novel Ng7 to detect full length neurogranin inAlzheimer's disease patient brain IP; Kvartsberg et al. 2015 Blennow lab), MAP2 (Millipore), and 4G8 (Biolegend) antibodies. Imaging was performed on Cellomics VX automated microscope with a 20×, 0.75 NA objective and analyzed using a compartmental analysis algorithm to measure staining in the nucleus versus cytoplasm."}, "[4]": {"conditions": "MAD, age ≤ 64 years, 280 mg (n = 8)"}, "[5]": {"conditions": "MAD, age ≤ 64 years, 560 mg (n = 8)"}, "[6]": {"conditions": "MAD, age ≤ 64 years, 840 mg (n = 8)"}, "[7]": {"conditions": "MAD, age ≥ 65 years, 560 mg (n = 7)"}}, "note": "Marks after values point to notes of the source that are not given here.", "data": [{"compound": "CC(C)(C)Oc1cc(CCC(C)(C)N2Cc3ccc(S(C)(=O)=O)cc3C2)ccc1O", "note": "[CT1812]", "values": [{"measurement": "receptor occupancy at 560 mg", "setting": "sigma-2 receptor complex; 560 mg dose, read-out: receptor occupancy in transgenic mouse brain associated with human CSF level", "value": 95, "unit": "%"}, {"measurement": "receptor occupancy in mouse brain equivalent to average human CSF concentrations", "setting": "sigma-2 receptor complex; 560 mg-840 mg dose range, 1.5 hr post-dose", "value": "97-98%"}, {"measurement": "receptor occupancy at 840 mg", "setting": "sigma-2 receptor complex; 840 mg dose, read-out: receptor occupancy associated with human CSF level", "value": 98, "unit": "%"}, {"measurement": "tolerability", "setting": "[1]; 280 mg to 840 mg QD for 14 days, healthy subjects", "value": "well tolerated"}, {"measurement": "ECG", "setting": "[1]; MAD", "value": "No ECG parameters or changes were assessed as clinically significant"}, {"measurement": "Number of Subjects with TEAE: Back pain", "setting": "[1]; MAD Total Active (n = 31)", "value": 2}, {"measurement": "Number of Subjects with TEAE: Catheter site phlebitis", "setting": "[1]; MAD Total Active (n = 31)", "value": 2}, {"measurement": "Number of Subjects with TEAE: Dizziness", "setting": "[1]; MAD Total Active (n = 31)", "value": 3}, {"measurement": "Number of Subjects with TEAE: Dyspepsia", "setting": "[1]; MAD Total Active (n = 31)", "value": 3}, {"measurement": "Number of Subjects with TEAE: Headache", "setting": "[1]; MAD Total Active (n = 31)", "value": 10}, {"measurement": "Number of Subjects with TEAE: Nausea", "setting": "[1]; MAD Total Active (n = 31)", "value": 2}, {"measurement": "Number of Subjects with TEAE: Procedural pain", "setting": "[1]; MAD Total Active (n = 31)", "value": 6}, {"measurement": "Number of Subjects with TEAE: Upper respiratory tract infection", "setting": "[1]; MAD Total Active (n = 31)", "value": 8}, {"measurement": "Number of Subjects with TEAE: Vomiting", "setting": "[1]; MAD Total Active (n = 31)", "value": 2}, {"measurement": "Number of Subjects with at least one Treatment-Emergent AE: All TEAES", "setting": "[1]; MAD Total Active (n = 31)", "value": 25}, {"measurement": "Number of Subjects with TEAE: Dizziness", "setting": "[1]; [4]", "value": 1}, {"measurement": "Number of Subjects with TEAE: Dyspepsia", "setting": "[1]; [4]", "value": 1}, {"measurement": "Number of Subjects with TEAE: Headache", "setting": "[1]; [4]", "value": 2}, {"measurement": "Number of Subjects with TEAE: Nausea", "setting": "[1]; [4]", "value": 1}, {"measurement": "Number of Subjects with TEAE: Upper respiratory tract infection", "setting": "[1]; [4]", "value": 5}, {"measurement": "Number of Subjects with at least one Treatment-Emergent AE: All TEAES", "setting": "[1]; [4]", "value": 7}, {"measurement": "Number of Subjects with TEAE: Catheter site phlebitis", "setting": "[1]; [5]", "value": 1}, {"measurement": "Number of Subjects with TEAE: Dyspepsia", "setting": "[1]; [5]", "value": 1}, {"measurement": "Number of Subjects with TEAE: Headache", "setting": "[1]; [5]", "value": 1}, {"measurement": "Number of Subjects with TEAE: Procedural pain", "setting": "[1]; [5]", "value": 4}, {"measurement": "Number of Subjects with TEAE: Upper respiratory tract infection", "setting": "[1]; [5]", "value": 1}, {"measurement": "Number of Subjects with at least one Treatment-Emergent AE: All TEAES", "setting": "[1]; [5]", "value": 7}, {"measurement": "Number of Subjects with TEAE: Back pain", "setting": "[1]; [6]", "value": 1}, {"measurement": "Number of Subjects with TEAE: Catheter site phlebitis", "setting": "[1]; [6]", "value": 1}, {"measurement": "Number of Subjects with TEAE: Dizziness", "setting": "[1]; [6]", "value": 1}, {"measurement": "Number of Subjects with TEAE: Dyspepsia", "setting": "[1]; [6]", "value": 1}, {"measurement": "Number of Subjects with TEAE: Headache", "setting": "[1]; [6]", "value": 4}, {"measurement": "Number of Subjects with TEAE: Nausea", "setting": "[1]; [6]", "value": 1}, {"measurement": "Number of Subjects with TEAE: Procedural pain", "setting": "[1]; [6]", "value": 2}, {"measurement": "Number of Subjects with TEAE: Upper respiratory tract infection", "setting": "[1]; [6]", "value": 2}, {"measurement": "Number of Subjects with TEAE: Vomiting", "setting": "[1]; [6]", "value": 2}, {"measurement": "Number of Subjects with at least one Treatment-Emergent AE: All TEAES", "setting": "[1]; [6]", "value": 6}, {"measurement": "Number of Subjects with TEAE: Back pain", "setting": "[1]; [7]", "value": 1}, {"measurement": "Number of Subjects with TEAE: Dizziness", "setting": "[1]; [7]", "value": 1}, {"measurement": "Number of Subjects with TEAE: Headache", "setting": "[1]; [7]", "value": 3}, {"measurement": "Number of Subjects with at least one Treatment-Emergent AE: All TEAES", "setting": "[1]; [7]", "value": 5}, {"measurement": "serious AE (SAE)", "setting": "[1]; MAD, subject on 840 mg, respiratory picornavirus infection deemed unrelated to study treatment", "value": "One"}, {"measurement": "subjects developing a rash", "setting": "[1]; MAD, improvement after discontinuing CT1812", "value": "One"}, {"measurement": "subjects with increase in liver function tests below 3× the upper limit of normal", "setting": "[1]; MAD, including one subject on placebo", "value": "Four"}, {"measurement": "exposure based on AUC, fed vs. fasted", "setting": "[2]; 90 mg", "value": "no significant difference"}, {"measurement": "t1/2", "setting": "[2]; SAD fasted 10 mg, Day 1, plasma, mean (n = 5)", "value": "12.0^‡ hr"}, {"measurement": "t1/2", "setting": "[2]; SAD fasted 450 mg (n = 6), plasma, mean", "value": 12.2, "unit": "h"}, {"measurement": "increase of Cmax and AUC with dose", "setting": "[2]; SAD, 10 mg to 1120 mg", "value": "slightly greater than dose proportionally"}, {"measurement": "AUC0-48h lower under fed vs fasted conditions (geometric least-squares mean)", "setting": "[2]; single 90 mg oral dose", "value": "~20", "unit": "%"}, {"measurement": "AUC0-inf lower under fed vs fasted conditions (geometric least-squares mean)", "setting": "[2]; single 90 mg oral dose", "value": "~20", "unit": "%"}, {"measurement": "Cmax lower under fed vs fasted conditions (geometric least-squares mean)", "setting": "[2]; single 90 mg oral dose", "value": "approximately 40%"}, {"measurement": "full length neurogranin protein expression in neurons", "setting": "[3]", "value": "restores neurogranin expression"}]}]}
